Experimental data reported in patent US20260199343A1 (Kadmon Corporation, LLC, priority 2022, published 2026).
pIC50: −log10 of the molar value. Structures can show the parent of a compound that is named as a salt.

Columns and labels:
[1] = system: MM cell lines (LP1, MM1R, MM1S, OPM2); assay: CellTiter-Glo cell viability, panel of MM cell lines; assay type: cell-based, human; conditions: 8 days treatment
Method: Cell viability was measured by CellTiter-Glo, Luminescent Cell Viability Assay normalized with DMSO.

C-myc protein = assay: Western blot of C-Myc in LP1 cells; assay type: cell-based, human; conditions: 24 hours of treatment
[2] = cited from earlier work
MOLP-8 = MOLP-8 viability, belumosudil vs Y27632 (Example 5); assay type: cell-based, human; conditions: 10-40 μM (belumosudil effect starting at 10 μM), after 4 days of treatment
Method: MOLP-8 (DSMZ, #ACC569) were maintained in RPMI1640 complete medium (RPMI1640 supplemented with 20% FBS—Eurobio #CVFSVF06-01 and 1% L-glutamine—Gibco #25030-081), incubated at 37° C. with 5% CO2 before being used.
(§1) Before treatment, MM cells were centrifuged for 5 minutes at 300 g, counted, and resuspended in RPMI1640 complete medium to have 50000 cells/100 μl.
(§2) Compounds and cells were then added to the appropriate wells of a Corning™ 96-Well Clear Ultra Low Attachment Microplate (Corning, #7007) (final volume of each well: 200 μl). […] MOLP-8 or LP-1 or RPMI-8226 or HD NK cells (50000 cells/well) were then added to the appropriate wells. The plate was then centrifuged for 1 minute at 100 g before being placed into an incubator at 37° C. with 5% CO2 for up to 4 days.
After treatment, cells were collected and added to U bottom plates for antibody labelling. […]
(§3) To additionally assess cell viability, DAPI (Miltenyi Biotec, #130-111-570) was added in each well before plate reading by flow cytometry. Samples were then analyzed with the MACSQuant 16 flow cytometer (Miltenyi Biotec).
(§4) Data were analyzed with FlowJo software as shown in FIG. 3: (FIG. 3A) MOLP-8 cells excluding debris was gated, followed by gating for single cells (FIG. 3B). From the single cells, viable DAPI^neg cells were quantified (FIG. 3C).

RPMI-8226 = RPMI-8226 viability, belumosudil vs Y27632 (Example 5); assay type: cell-based, human; conditions: 10-40 μM (belumosudil effect starting at 10 μM), after 4 days of treatment
Method: RPMI-8226 (ATCC, #CCL155) were maintained in RPMI1640 complete medium, incubated at 37° C. with 5% CO2 before being used.
as §1, §2
After treatment, cells were collected and added to U bottom plates for antibody labelling.
Then, cells were centrifuged for 5 minutes at 300 g, the supernatant removed and 200 μl of AutoMACS Running buffer (Miltenyi Biotec, #130-091-221) added to each well. […]
as §3, §4

HD NK cells = assay: HD NK cell viability, belumosudil vs Y27632 (Example 5); assay type: cell-based, human; conditions: 10-40 μM, after 4 days of treatment
From the text: (§5) Healthy donor buffy coats were supplied by EFS Ile de France. Immediately after reception, the qualified buffy coats were put under gentle agitation overnight at room temperature. The following day, peripheral blood mononuclear cells (PBMCs) were isolated by Ficoll (Cytiva #17-1440-02) density gradient centrifugation. Human NK cells were purified from PBMCs with the MACSXpress Whole Blood NK cell isolation kit from Miltenyi Biotec (#130-127-695) by negative selection using manual magnetic labelling and the MACSxpress separator (Miltenyi Biotec #130-098-308). Then, purified NK cells were cultured in RPMI1640 medium supplemented with 10% foetal bovine serum (FBS) (Eurobio #CVFSVF06-01) and 1% of L-Glutamine (Gibco #25030-081). The cells were left to rest overnight at 37° C. with 5% CO2 before being used. […]
as §3, §4

CD38 = conditions: bone marrow and MM cells of patients after first treatment; cited from earlier work
MM1S cells = assay: Growth inhibition of MM1S cells (CellTiterGlo / Incucyte confluency); assay type: cell-based, human; conditions: 5-6 days
Method: (§6) On Day 1, the cells were plated at 3,000 cells per well (50 ul) using 384w plate (Costar, 3765) pre-coated with Poly-D-Lysine, spun down at 300 g for 1 min at room temperature and transferred in Incucyte S3 (37° C.; 5% CO2; every 2 h kinetic read). […] Cells were further incubated in Incucyte S3 (Sartorius) for an additional 5-6 days at 37° C., 5% CO2 with the same kinetic readings. At the end, proliferation was measured by added CellTiterGlo (Promega) to assess cell viability or by using Incucyte measuring cell confluency over time. Cell growth was normalized to DMSO (100%) and staurosporine (Sigma; […]) 1 uM (0%)).

LP-1 cells = assay: Growth inhibition of LP-1 cells (CellTiterGlo / Incucyte confluency); assay type: cell-based, human; conditions: LP1, 5-6 days
Method: as §6

[3] = cited from earlier work; remark: listed apart in the source
[4] = HD NK cell viability by DAPI flow cytometry (Example 2); assay type: cell-based; conditions: human, healthy donor (HD) NK cells purified from PBMCs; high concentrations 25-40 μM, after 4 days of treatment; read-out: reduction of HD NK cells viability
From the text: as §5, with “fetal” for “foetal”, “#25030-081).” for “#25030-081). The cells were left to rest overnight at 37° C. with 5% CO2 before being used.”
To additionally assess cell viability, DAPI (Miltenyi Biotec, #130-111-570) was added in each well before plate reading by flow cytometry. Samples were then analyzed with the MACSQuant 16 flow cytometer (Miltenyi Biotec). Data were analyzed with FlowJo software using the following strategy shown in FIGS. 3A-3D: (A) MOLP-8 cells excluding debris were gated, followed by gating for single cells (B), from single cells, viable DAPI^neg cells were quantified (C), and from DAPI^neg cells, the expression of CD38 was quantified with FITC fluorochrome (D) and expressed as median of fluorescence intensity (MFI).

Nc1cccc2c1C(=O)N(C1CCC(=O)NC1=O)C2=O (racemic) [pomalidomide, (RS)-4-Amino-2-(2,6-dioxo-piperidin-3-yl)-isoindoline-1,3-dione]
growth inhibition of MM cell lines [1]: growth inhibition in all of these MM cell lines except LP1
C-myc protein level (C-myc protein): very moderate effect
solubility in all pH solutions ([2]; all pH solutions): about 0.01 mg/mL
solubility into organic solvents ([2]; organic solvents): limited to low solubility

C[C@@H](N)[C@H]1CC[C@H](C(=O)Nc2ccncc2)CC1 [Y27632]
viability of MOLP-8 (number of cells and % of live cells) (MOLP-8): does not impact viability
viability of RPMI-8226 (number of cells and % of live cells) (RPMI-8226): does not impact viability
HD NK cell viability (HD NK cells): neither belumosudil nor Y27632 impact HD NK cell viability

daratumumab: anti-CD38 antibody
CD38 expression (CD38): reduced

C[C@@H]1C[C@H]2[C@@H]3CCC4=CC(=O)C=C[C@]4(C)[C@@]3(F)[C@@H](O)C[C@]2(C)[C@@]1(O)C(=O)CO [Dexamethasone, 9-fluoro-11β,17,21-trihydroxy-16α-methylpregna-1,4-diene-3,20-dione]
growth inhibition, single agent (MM1S cells): single agent growth inhibition activity
growth inhibition, single agent (LP-1 cells): single agent growth inhibition activity
solubility in water [2]: practically insoluble in water
stability in air [3]: stable in air

CC(C)NC(=O)COc1cccc(-c2nc(Nc3ccc4[nH]ncc4c3)c3ccccc3n2)c1 [belumosudil, 2-{3-[4-(1H-indazol-5-ylamino)-2-quinazolinyl]phenoxy}-N-(propan-2-yl) acetamide]
pIC50 ([1]; Homo sapiens, 192 h, LP1, MM1R, MM1S, OPM2, normalized with DMSO, read-out: IC50 of MM cell line growth inhibition): 5.15 to 6.00
cytotoxicity at 4 days [4]: ≤ 10%

CC(C)NC(=O)COc1cccc(-c2nc(Nc3ccc4[nH]ncc4c3)c3ccccc3n2)c1 [Belumosudil mesylate, 2-{3-[4-(1H-indazol-5-ylamino)-2-quinazolinyl]phenoxy}-N-(propan-2-yl) acetamide methanesulfonate (1:1)]
solubility in water [2]: practically insoluble in water
